{"source": "patent US20240219394A1", "about": "“METHOD FOR MEASURING RESPONSE OF OLFACTORY RECEPTOR TO SUBSTANCE” (AJINOMOTO CO., INC., priority 2021, published 2024)", "test_system": "control cells (HEK293T cells transfected with the empty vector Rho-pME18S)", "experiment": "Luciferase assay: response of control cells to adenosine", "format": "cell-based, human", "details": "FIG. 1", "experimental": "HEK293T cells expressing each of the 352 kinds of olfactory receptors were prepared according to the following procedure. […] The gene mixture and transfection reagent mixture were mixed, dispensed into each well of a poly-D-lysine-coated 384-well plate in a volume of 12.5 μL, and allowed to stand for 15 minutes in a clean bench. The HEK293T cells inoculated in 10-cm petri dishes on the previous day (2.5×10^6 cells/10 cm petri dish) were prepared at a density of 1.2×10^5 cells/mL, inoculated into each well of the 384-well plate in a volume of 25 μL, and cultured overnight in an incubator maintained at 37° C. and 5% C02. […]\nThe 352 olfactory receptors expressed in HEK293T cells couple with Golf to activate adenylate cyclase, thereby increasing the amount of intracellular cAMP. In this example, responses of the olfactory receptors to the test substances were measured by using a luciferase reporter gene assay, in which increase in intracellular cAMP amount is monitored as an increase in firefly luciferase-derived luminescence. […] In addition, luminescence value derived from Renilla luciferase was used as an internal standard to correct errors due to differences of gene transfer efficiency and cell number among the wells. […]"}
{"smiles": "Nc1ncnc2c1ncn2[C@@H]1O[C@H](CO)[C@@H](O)[C@H]1O", "note": "[adenosine]", "values": [{"measurement": "Response of control cells to adenosine (Luc/hRluc value, increase in cAMP)", "result": "caused increase in cAMP"}]}
